The nature of data set [1]: Animal pharmacokinetic study in rats, single gavage. Format: in vivo. To be noted: rat, po; male rats, single gavage 5 mg/kg, plasma. The method, then:
Three healthy adult male rats from Beijing Vital River Experimental animal Technology Co. Ltd were used for animal pharmacokinetic experiments. The compounds were suspended in 20% sulfobutyl ether-β-cyclodextrin (W/W/V) at a concentration of 1 mg/mL at a dosing volume of 5 mL/kg by single gavage at a dose of 5 mg/kg. Animals were fasted overnight before the experiment, from 10 hours before the administration to 4 hours after the administration. Blood was collected at 0.25, 0.5, 1, 2, 4, 6, 8, and 24 hours after the administration. The animals were anesthetized with isoflurane. About 0.4 mL of whole blood was collected from the orbital venous plexus using a glass blood collection tube and placed in a heparin anticoagulant tube. The sample was centrifuged at 4200 rpm for 5 min at 4° C. The plasma was transferred to a centrifuge tube and stored at −80° C. for later analysis. The plasma sample analysis used the acetonitrile protein precipitation method to extract the compound to be tested and internal standard (Warfarin or Propranolol) from rat plasma, and the extraction solution was analyzed by LC/MS/MS. The plasma concentration-time data of individual animals measured were analyzed using anon-compartmental model using the WinNonlin (version 5.2.1; Pharsight company) software, and the following pharmacokinetic parameters were obtained: maximum (peak) plasma drug concentration Cmax; Time to max Tmax; the area under the curve AUC0-inf of blood drug concentration-time from half-life T½ and extrapolation to infinite time.

For data set [2], the system named is multiple myeloma cells U266B1. As to the kind of experiment: In-vivo assay II: subcutaneous xenograft model of multiple myeloma cells U266B1 in mice. The following applies: NOG mice. How it is done: Evaluation assay of LMP7 Inhibitors in a subcutaneous xenograft model of multiple myeloma cells U266B1 in mice
Female NOG mice, week old: 6-8 weeks old, certificate No: SCXK(Jing) 2021-0006, purchased from Beijing Vital River Experimental Animal Technology Co. Ltd.
The specific method was that mice were housed in an SPF environment. Every 5 mice were housed in 1 cage. Animals were free to drink and eat and were adaptively raised for one week. Laboratory conditions: room temperature 18-24° C., relative humidity 40%-70%, ventilated with a ventilation fan, natural light source for 12 hours per day. Cages, bedding, drinking water, and feed were replaced twice a week, and the replaced cages and drinking water bottles were cleaned and then sterilized by steam under high pressure. Cages, room walls, and floors were cleaned twice a week with 84-disinfectant or bromogeramine.
U266b1 (China Center for Type Culture Collection, College of Life Sciences at Wuhan University) cells were cultured using RPMI-1640 medium supplemented with 20% fetal bovine serum and 1% Penicillin-Streptomycin at 37° C. in an atmosphere of 5% CO2 in the air. Cells were routinely sub-cultured twice weekly, and cells grown in the exponential growth phase were harvested and counted. Cell suspensions were mixed well at 1:1 in Matrigel™ (Corning Matrigel™ Normal Basement Membrane) for tumor cell inoculation.
Each mouse was subcutaneously injected with 0.1 ml of PBS-suspended U266B1 cell suspension (containing 1.0×10^7 cells, 50% Matrigel) at the axillary sites on both sides to establish a subcutaneous transplanted tumor model of multiple myeloma cells U266B1 in mice. […] Tumor diameter and body weight were measured 3 times per week during the experiment. […]
The study endpoints were tumor growth inhibition, maximum tumor burden (individual tumor size equal to 10% of body weight), and weight loss greater than 20% of body weight at the start of treatment. The tumor volume was calculated as V=0.5×a×b^2, where V is the tumor volume and a and b are the length and width of the tumor, respectively. […]

The mark [3] stands for this setting: 0.3 mg/kg orally once daily, Day 14.

The values that follow come from patent US20240425529A1, “BORIC ACID DERIVATIVE” (SHOUYAO HOLDINGS (BEIJING) CO., LTD., priority 2021, published 2024).

As usually defined, the AUC(0-inf) is total exposure, with the tail of the curve extrapolated. The low end stands for low exposure, the high end for high exposure. What is called Cmax is the highest concentration seen after dosing. As a reminder, the Tmax is the time at which the peak concentration occurs. Usually half-life stands for how long it takes for the measured level to halve. Read a high half-life as slow decline. As a reminder, the T/C is the result in the treated group divided by that in the control group, in per cent.

`O=C(Nc1cnccn1)C(=O)N[C@@H](Cc1coc2ccccc12)B(O)O` [Ex. 9, (R)-(2-(benzofuran-3-yl)-1-(2-oxo-2-(pyrazin-2-ylamino)acetamido)ethyl) boronic acid]: in data set [1], the AUC(0-inf) came out at 38600 ng·h/mL, the maximum concentration (Cmax) is 3880 ng/mL, the Tmax was determined as 2.67 h and the half-life is 5.58 h. In addition, the “animal death or weight loss caused by the compound” value in data set [2] (0.3 mg/kg orally once daily for 14 days) is “no animal death or weight loss”. In data set [2] (setting [3]), the T/C was found to be 9.76% and the “TGI (tumor growth inhibition rate)” value is recorded as 104.45%.

With `Cc1cnc(NC(=O)C(=O)N[C@@H](Cc2coc3ccccc23)B(O)O)s1` [Ex. 32, (R)-(2-(benzofuran-3-yl)-1-(2-oxo-2-((5-methylthiazol-2-yl)amino)acetamido)ethyl)boronic acid], in data set [1], the AUC(0-inf) was 22200 ng·h/mL, the Cmax is 1090 ng/mL, the Tmax was found to be 0.67 h and the half-life was 25.3 h.

As for `O=C(Nc1cc(Cl)ccn1)C(=O)N[C@@H](Cc1coc2ccccc12)B(O)O` [Ex. 49, (R)-(2-(benzofuran-3-yl)-1-(2-oxo-2-((4-chloropyridin-2-yl)amino)acetamido)ethyl)boronic acid], in data set [1], the AUC(0-inf) was 25400 ng·h/mL, the highest level (Cmax) was 1430 ng/mL, the Tmax was determined as 0.92 h and the half-life is 16.4 h.

For the compound `O=C(Nc1nc2ccccc2s1)C(=O)N[C@@H](Cc1coc2ccccc12)B(O)O` [Ex. 27, (R)-(2-(benzofuran-3-yl)-1-(2-oxo-2-((benzo[d]thiazol-2-yl)amino)acetamido)ethyl)boronic acid], in data set [1], the total exposure AUC(0-inf) was 24200 ng·h/mL, the peak concentration (Cmax) was 1910 ng/mL, the time of peak concentration (Tmax) was 3.33 h and the half-life is 5.17 h.

As to `O=C(Nc1ccccn1)C(=O)N[C@@H](Cc1coc2ccccc12)B(O)O` [Ex. 12], in data set [1], the area under the curve AUC(0-inf) stood at 26500 ng·h/mL, the Cmax turned out to be 3930 ng/mL, the Tmax was found to be 0.58 h and the half-life was 14.7 h.
